Measurements: publication PMC5681922, “Systemic Responses of Multidrug-Resistant Pseudomonas aeruginosa and Acinetobacter baumannii Following Exposure to the Antimicrobial Peptide Cathelicidin-BF Imply Multiple Intracellular Targets” (Frontiers in Cellular and Infection Microbiology, 2017)
Like-named read-outs stand apart in the source and are kept apart here. No end group written: not given here.

Tested on: P. aeruginosa 1409

For “KFFRKLKKSVKKRAKEFFKKPRVIGVSIPF [cathelicidin-BF]”, the Pa-Ca/Pa-C was 0.8832, the “Pa-Ca/Pa-C: 30S ribosomal protein S9, rpsI (Q9HVY3)” value was 0.9749 and the “expression of protein Q9HVA1 (acetolactate synthase isozyme III small subunit)” value was “overexpressed”. The “expression of protein Q9I3S7 (likely decarboxylase)” value was “downregulated”, the “expression of protein Q9I523 (nucleoside-triphosphate diphosphatase)” value was “downregulated” and the Pa-Ca/Pa-C (iTRAQ abundance ratio Pa-Cathelicidin/Pa-Control of protein G3XCU7 (GN=PA2949)) was 0.9896. For the same sequence, the Pa-Ca/Pa-C (iTRAQ abundance ratio Pa-Cathelicidin/Pa-Control of protein G3XCU9 (GN=PA2020)) was 0.9868, the Pa-Ca/Pa-C (iTRAQ abundance ratio Pa-Cathelicidin/Pa-Control of protein G3XCW2 (GN=PA2018)) was 1.1346 and the Pa-Ca/Pa-C (iTRAQ abundance ratio Pa-Cathelicidin/Pa-Control of protein G3XCX7 (GN=pilP)) was 0.9395. It also gave a Pa-Ca/Pa-C (iTRAQ abundance ratio Pa-Cathelicidin/Pa-Control of protein G3XCZ4 (GN=PA0891)) of 1.209, a Pa-Ca/Pa-C (iTRAQ abundance ratio Pa-Cathelicidin/Pa-Control of protein G3XD66 (GN=narX)) of 0.9046 and a Pa-Ca/Pa-C (iTRAQ abundance ratio Pa-Cathelicidin/Pa-Control of protein G3XD98 (GN=gacS)) of 1.089. It also gave a Pa-Ca/Pa-C (iTRAQ abundance ratio Pa-Cathelicidin/Pa-Control of protein G3XDA4 (GN=PA0653)) of 1.044, a Pa-Ca/Pa-C (iTRAQ abundance ratio Pa-Cathelicidin/Pa-Control of protein O50273 (GN=cysD)) of 0.9324 and a Pa-Ca/Pa-C (iTRAQ abundance ratio Pa-Cathelicidin/Pa-Control of protein O68561 (GN=PA4766)) of 1.042. It also gave a Pa-Ca/Pa-C (iTRAQ abundance ratio Pa-Cathelicidin/Pa-Control of protein P23747 (GN=algB)) of 1.041, a Pa-Ca/Pa-C (iTRAQ abundance ratio Pa-Cathelicidin/Pa-Control of protein Q9HT06 (GN=yidC)) of 1.13 and a Pa-Ca/Pa-C (iTRAQ abundance ratio Pa-Cathelicidin/Pa-Control of protein Q9HT09 (GN=mnmG)) of 1.075. For the same sequence, the Pa-Ca/Pa-C (iTRAQ abundance ratio Pa-Cathelicidin/Pa-Control of protein Q9HTC2 (GN=PA5445)) was 1.07, the Pa-Ca/Pa-C (iTRAQ abundance ratio Pa-Cathelicidin/Pa-Control of protein Q9HTG5 (GN=dgcB)) was 1.053 and the Pa-Ca/Pa-C (iTRAQ abundance ratio Pa-Cathelicidin/Pa-Control of protein Q9HTH5 (GN=cdhR)) was 1.224. It also gave a Pa-Ca/Pa-C (iTRAQ abundance ratio Pa-Cathelicidin/Pa-Control of protein Q9HTJ5 (GN=pstA)) of 0.8996, a Pa-Ca/Pa-C (iTRAQ abundance ratio Pa-Cathelicidin/Pa-Control of protein Q9HTL3 (GN=recG)) of 1.182 and a Pa-Ca/Pa-C (iTRAQ abundance ratio Pa-Cathelicidin/Pa-Control of protein Q9HTM0 (GN=spoT)) of 1.095. For the same sequence, the Pa-Ca/Pa-C (iTRAQ abundance ratio Pa-Cathelicidin/Pa-Control of protein Q9HTN3 (GN=dut)) was 1.23, the Pa-Ca/Pa-C (iTRAQ abundance ratio Pa-Cathelicidin/Pa-Control of protein Q9HTQ6 (GN=xpt)) was 1.069 and the Pa-Ca/Pa-C (iTRAQ abundance ratio Pa-Cathelicidin/Pa-Control of protein Q9HTY4 (GN=argE)) was 1.064. It also gave a Pa-Ca/Pa-C (iTRAQ abundance ratio Pa-Cathelicidin/Pa-Control of protein Q9HU23 (GN=rmlD)) of 0.9526, a Pa-Ca/Pa-C (iTRAQ abundance ratio Pa-Cathelicidin/Pa-Control of protein Q9HU51 (GN=PA5133)) of 0.8597 and a Pa-Ca/Pa-C (iTRAQ abundance ratio Pa-Cathelicidin/Pa-Control of protein Q9HUB1 (GN=PA5072)) of 1.129. The Pa-Ca/Pa-C (iTRAQ abundance ratio Pa-Cathelicidin/Pa-Control of protein Q9HUL5 (GN=PA4949)) was 0.9992, the Pa-Ca/Pa-C (iTRAQ abundance ratio Pa-Cathelicidin/Pa-Control of protein Q9HUN4 (GN=alr)) was 0.8997 and the Pa-Ca/Pa-C (iTRAQ abundance ratio Pa-Cathelicidin/Pa-Control of protein Q9HUS6 (GN=PA4887)) was 0.9498. For the same sequence, the Pa-Ca/Pa-C (iTRAQ abundance ratio Pa-Cathelicidin/Pa-Control of protein Q9HUT5 (GN=PA4878)) was 0.8866, the Pa-Ca/Pa-C (iTRAQ abundance ratio Pa-Cathelicidin/Pa-Control of protein Q9HVA1 (GN=ilvH)) was 1.442 and the Pa-Ca/Pa-C (iTRAQ abundance ratio Pa-Cathelicidin/Pa-Control of protein Q9HVI2 (GN=PA4607)) was 1.1056. It also gave a Pa-Ca/Pa-C (iTRAQ abundance ratio Pa-Cathelicidin/Pa-Control of protein Q9HVI3 (GN=PA4606)) of 1.1297, a Pa-Ca/Pa-C (iTRAQ abundance ratio Pa-Cathelicidin/Pa-Control of protein Q9HVP4 (GN=PA4533)) of 1.032 and a Pa-Ca/Pa-C (iTRAQ abundance ratio Pa-Cathelicidin/Pa-Control of protein Q9HVQ9 (GN=lpxO1)) of 0.3833. It also gave a Pa-Ca/Pa-C (iTRAQ abundance ratio Pa-Cathelicidin/Pa-Control of protein Q9HVV6 (GN=PA4461)) of 0.9096, a Pa-Ca/Pa-C (iTRAQ abundance ratio Pa-Cathelicidin/Pa-Control of protein Q9HW10 (GN=PA4396)) of 0.9909 and a Pa-Ca/Pa-C (iTRAQ abundance ratio Pa-Cathelicidin/Pa-Control of protein Q9HW40 (GN=PA4361)) of 1.028. The Pa-Ca/Pa-C (iTRAQ abundance ratio Pa-Cathelicidin/Pa-Control of protein Q9HW52 (GN=PA4349)) was 1.052, the Pa-Ca/Pa-C (iTRAQ abundance ratio Pa-Cathelicidin/Pa-Control of protein Q9HW85 (GN=sbcB)) was 0.9833 and the Pa-Ca/Pa-C (iTRAQ abundance ratio Pa-Cathelicidin/Pa-Control of protein Q9HWG9 (GN=phzS)) was 0.9442. The Pa-Ca/Pa-C (iTRAQ abundance ratio Pa-Cathelicidin/Pa-Control of protein Q9HX06 (GN=PA4021)) was 1.123, the Pa-Ca/Pa-C (iTRAQ abundance ratio Pa-Cathelicidin/Pa-Control of protein Q9HX89 (GN=PA3924)) was 0.8403 and the Pa-Ca/Pa-C (iTRAQ abundance ratio Pa-Cathelicidin/Pa-Control of protein Q9HXF4 (GN=PA3852)) was 1.051. For the same sequence, the Pa-Ca/Pa-C (iTRAQ abundance ratio Pa-Cathelicidin/Pa-Control of protein Q9HXG8 (GN=PA3836)) was 1.058, the Pa-Ca/Pa-C (iTRAQ abundance ratio Pa-Cathelicidin/Pa-Control of protein Q9HXL6 (GN=PA3779)) was 0.9473 and the Pa-Ca/Pa-C (iTRAQ abundance ratio Pa-Cathelicidin/Pa-Control of protein Q9HXT9 (GN=wspR)) was 1.096. It also gave a Pa-Ca/Pa-C (iTRAQ abundance ratio Pa-Cathelicidin/Pa-Control of protein Q9HY45 (GN=PA3575)) of 1.067, a Pa-Ca/Pa-C (iTRAQ abundance ratio Pa-Cathelicidin/Pa-Control of protein Q9HY53 (GN=PA3564)) of 0.9999 and a Pa-Ca/Pa-C (iTRAQ abundance ratio Pa-Cathelicidin/Pa-Control of protein Q9HYC5 (GN=PA3484)) of 1.215. The Pa-Ca/Pa-C (iTRAQ abundance ratio Pa-Cathelicidin/Pa-Control of protein Q9HYK2 (GN=PA3402)) was 1.136 and the Pa-Ca/Pa-C (iTRAQ abundance ratio Pa-Cathelicidin/Pa-Control of protein Q9HYU6 (GN=PA3297)) was 0.9414.
